Test results published in paper PMC8761492 (Life Science Alliance, 2022).
Starred links: 1 amine or outer side, 2 acyl side, 3 side chain; linkers in the order of their positions; H or OH if unused. Positions of bridges follow the written chain, without caps; N, C: chain ends. Non-standard residues stand in square brackets, D forms with d. Residues, ends and D or L forms follow the SMILES beside them. *: point of attachment. X1 = CC[C@H](C)[C@@H](N[*:1])[C@@H](O)CC(=O)O[C@H](C(=O)[C@H](C)C(=O)[*:2])C(C)C; NMeY = CN[C@@H](Cc1ccc(O)cc1)C(=O)O; dNMeL = CN[C@H](CC(C)C)C(=O)O; Pyruvoyl = CC(=O)C(=O)*

Tests used:
Experiment in all cases: microbe, parasite or virus in culture
Assay type in all cases: cell-based
Conditions in all cases: Severe acute respiratory syndrome coronavirus 2, HeLa-ACE2, 48 h
[1] = tested on: SARS-CoV-2 μ (B.1.621)
[2] = tested on: SARS-CoV-2 β (B.1.351)
[3] = tested on: SARS-CoV-2 δ (B.1.617.2)
[4] = tested on: SARS-CoV-2 ο (B.1.1.529)
[5] = tested on: SARS-CoV-2 α (B.1.1.7)

For `CC[C@H](C)[C@H]1NC(=O)[C@@H](NC(=O)[C@@H](CC(C)C)N(C)C(=O)[C@@H]2CCCN2C(=O)C(C)=O)[C@@H](C)OC(=O)[C@H](Cc2ccc(OC)cc2)N(C)C(=O)[C@@H]2CCCN2C(=O)[C@H](CC(C)C)NC(=O)[C@@H](C)C(=O)[C@H](C(C)C)OC(=O)C[C@@H]1O` [Plitidepsin] (Pyruvoyl-P[dNMeL]T[X1]LP[NMeY](Me); ester 3-C), the IC50 ([1]; read-out: Antiviral IC50) was 266 pM, the IC90 ([1]; read-out: Antiviral IC90) was 1030 pM and the IC50 ([2]; read-out: Antiviral IC50) was 77 pM. The IC90 ([2]; read-out: Antiviral IC90) was 419 pM, the IC50 ([3]; read-out: Antiviral IC50) was 89 pM and the IC90 ([3]; read-out: Antiviral IC90) was 511 pM. The IC50 ([4]; read-out: Antiviral IC50) was 291 pM, the IC90 ([4]; read-out: Antiviral IC90) was 887 pM and the IC50 ([5]; read-out: Antiviral IC50) was 52 pM. The IC90 ([5]; read-out: Antiviral IC90) was 161 pM.
